Here are results for 2 compounds from patent US5624936A, “Inhibitors of farnesyl-protein transferase” (Merck & Co., Inc., priority 1996, dated 1997).

Counter-ions that a name gives are not always drawn.

For this test, the target named is T1, human FPTase (Homo sapiens, UniProt P49354+P49356).
T1 construct: made in house
Put plainly: In vitro inhibition of human farnesyl-protein transferase (FPTase). As to conditions: 100 nM Ras-CVIM substrate, [3H]-FPP, 30 min; read-out: IC50, inhibitory activity against human FPTase. It counts as biochemical.

On to `CC[C@H](C)[C@@H](CN1Cc2ccccc2C[C@H]1C(=O)N[C@@H](CCSC)C(=O)O)NC(=O)[C@@H]1CCC(=O)N1` [Example 3, Step B, N-[L-Pyroglutamyl-2(S)-amino-3(S)-methylpentyl]-1,2,3,4-tetrahydro-3(S)-isoquinolinecarbonyl-methionine trifluoroacetate], for which the IC50 (usually the concentration that gives 50% inhibition) was less than 10 µM.
Consider `CC[C@H](C)[C@@H](CN1Cc2ccccc2C[C@H]1C(=O)N[C@@H](CCSC)C(=O)O)NC(=O)Cc1c[nH]cn1` [Examples 1. Step G, N-[(1H-imidazol-4-ylacetyl)-2(S)-amino-3(S)-methylpentyl]-1,2,3,4-tetrahydro-3(S)-isoquinolinecarbonyl-methionine trifluoroacetate], for which the IC50 is less than 10 µM.
